Data: EP1561465A2, “Methods of use of fluoroquinolone compounds against bacteria” (LG Life Sciences, Ltd., priority 1999, dated 2001)
Converted amounts (≈) assume the structure as drawn. Read-outs that look alike come from different tables or passages of the source.

Assays:
Salmonella spp. = experiment: MIC by agar dilution (NCCLS M7-A4), 288 enteropathogenic isolates, gemifloxacin and 15 other antimicrobials; type: cell-based; conditions: for MIC (mg/L) Range: Salmonella spp. N= 106; for MIC: Salmonella
Hafnia alvei = experiment: as above; type: cell-based; conditions: for MIC: Hafnia alvei N= 32
Yersinia enterocolitica = experiment: as above; type: cell-based; conditions: for MIC: Yersinia enterocolitica N= 22
Shigella spp. = experiment: as above; type: cell-based
Experimental: [A. hydrophila (12), and A. sobria (4)], and 91 Campylobacter jejuni. […] The strains were stored in skimmed-milk at -80 °C until studied.
The plates were incubated aerobically at 35 °C for 24 h, except for Campylobacter jejuni, where a microaerophilic atmosphere was obtained by using Campy Pack (Becton Dickinson, Cockeysville, MD, USA), and incubation was for 48 h. All organisms were tested with an inoculum of ≅ 10^4 cfu/spot. MICs were defined as the lower antibiotic concentration with no visible growth.

Aeromonas spp. = experiment: as above; type: cell-based; conditions: for MIC (mg/L) Range / MIC: Aeromonas spp. N= 16
Campylobacter jejuni = experiment: as above; conditions: for MIC (mg/L) Range: Campylobacter jejuni N= 91
Enterobacter spp. = experiment: MIC by agar dilution (NCCLS), 322 nosocomial Gram negative isolates, Athens 1998; type: cell-based
Streptococcus pneumoniae = experiment: MIC by E-test (broth microdilution for gemifloxacin), 107 pneumococcal carrier isolates, Athens 1998; type: cell-based; conditions: Streptococcus pneumoniae, E-test; for MIC50: read-out: MIC50; for MIC90: read-out: MIC90
Experimental: Susceptibility testing was performed by agar dilution or epsilometer method (E-test), as recommended by the NCCLS. […] The susceptibility profiles of the strains were assessed using the Epsilometer method (E-test). The isolates were subdivided into two groups according to their penicillin susceptibility patterns (penicillin-susceptible and penicillin-intermediate.

Staphylococcus aureus = experiment: MIC by agar macrodilution (NCCLS), 373 Gram positive isolates, Athens 1998; type: cell-based; conditions: Methicillin-susceptible Staphylococcus aureus (n = 85)
[1] = read-out: MIC (mg/L) 50%, Salmonella spp. N= 106
[2] = read-out: MIC (mg/L) 90%, Salmonella spp. N= 106
[3] = 24 h, read-out: MIC (mg/L) Range
[4] = Campylobacter jejuni, read-out: MIC (mg/L) 50%
[5] = Campylobacter jejuni, read-out: MIC (mg/L) 90%
[6] = Penicillin-intermediate S. pneumoniae (n = 24)
[7] = Penicillin-susceptible S. pneumoniae (n = 107)

In the case of CO/N=C(\C(=O)N[C@@H]1C(=O)N2C(C(=O)O)=C(COC(C)=O)CS[C@H]12)c1csc(N)n1 [Cefotaxime, cefotaxime], the “MIC (mg/L) Range” value (Salmonella spp.) is reported as 0.06 to 0.5 mg/L, the susceptible isolates (Salmonella spp.; Salmonella spp., breakpoints) is reported as 100% and the MIC (Salmonella spp.; [1]) is reported as 0.12 mg/L (≈ 0.263 µM). For the same compound, the MIC (Salmonella spp.; [2]) was 0.12 mg/L (≈ 0.263 µM), the MIC (Hafnia alvei; [3]) was 0.12 to 0.5 mg/L (≈ 0.263 to 1.1 µM) and the susceptible isolates (Hafnia alvei; Hafnia alvei, breakpoints) was 100%. For the same compound, the MIC (Hafnia alvei; read-out: MIC (mg/L) 50%) was 0.25 mg/L (≈ 0.549 µM), the MIC (Hafnia alvei; read-out: MIC (mg/L) 90%) was 0.5 mg/L (≈ 1.1 µM) and the MIC (Yersinia enterocolitica; [3]) was 0.06 to 0.12 mg/L (≈ 0.132 to 0.263 µM). It also gave a susceptible isolates (Yersinia enterocolitica; Yersinia enterocolitica, breakpoints) of 100%, an MIC (Yersinia enterocolitica; read-out: MIC (mg/L) 50%) of 0.06 mg/L (≈ 0.132 µM) and an MIC (Yersinia enterocolitica; read-out: MIC (mg/L) 90%) of 0.06 mg/L (≈ 0.132 µM). For the same compound, the MIC (Shigella spp.; 24 h, Shigella spp. N= 21, read-out: MIC (mg/L) Range) was 0.015 to 0.03 mg/L (≈ 0.0329 to 0.0659 µM), the susceptible isolates (Shigella spp.; Shigella spp., breakpoints) was 100% and the MIC (Shigella spp.; read-out: MIC (mg/L) 50%, Shigella spp. N= 21) was at most 0.015 mg/L. For the same compound, the MIC (Shigella spp.; read-out: MIC (mg/L) 90%, Shigella spp. N= 21) was 0.03 mg/L (≈ 0.0659 µM), the “MIC (mg/L) Range” value (Aeromonas spp.) was at most 0.015 to 0.12 mg/L and the susceptible isolates (Aeromonas spp.; Aeromonas spp., breakpoints) was 100%. It also gave an MIC (Aeromonas spp.; read-out: MIC (mg/L) 50%) of 0.03 mg/L (≈ 0.0659 µM), an MIC (Aeromonas spp.; read-out: MIC (mg/L) 90%) of 0.12 mg/L (≈ 0.263 µM) and a susceptible isolates (Campylobacter jejuni; C. jejuni, breakpoints) of 57%. For the same compound, the “MIC (mg/L) Range” value (Campylobacter jejuni) was 2 to 32 mg/L, the MIC (Campylobacter jejuni; [4]) was 8 mg/L (≈ 17.6 µM) and the MIC (Campylobacter jejuni; [5]) was 16 mg/L (≈ 35.1 µM).
In the case of CC(C)(O/N=C(\C(=O)N[C@@H]1C(=O)N2C(C(=O)[O-])=C(C[n+]3ccccc3)CS[C@H]12)c1csc(N)n1)C(=O)O [Cetfazidime], the MIC50 (Enterobacter spp.; Enterobacter) is reported as 1 µg/mL, the MIC90 (Enterobacter spp.; Enterobacter) is reported as over 64 µg/mL and the “MIC distribution (µg/ml) 0.06” value (Enterobacter spp.; {}) is reported as 1. For the same compound, the “MIC distribution (µg/ml) 0.25” value (Enterobacter spp.; {}) was 16, the “MIC distribution (µg/ml) 0.5” value (Enterobacter spp.; {}) was 3 and the “MIC distribution (µg/ml) 1” value (Enterobacter spp.; {}) was 2. For the same compound, the “MIC distribution (µg/ml) 2” value (Enterobacter spp.; {}) was 1, the “MIC distribution (µg/ml) 4” value (Enterobacter spp.; {}) was 0 and the “MIC distribution (µg/ml) 8” value (Enterobacter spp.; {}) was 2. For the same compound, the “MIC distribution (µg/ml) 16” value (Enterobacter spp.; {}) was 6, the “MIC distribution (μg/ml) 32” value (Enterobacter spp.; {}) was 3 and the “MIC distribution (μg/ml) 64” value (Enterobacter spp.; {}) was 2.
CC[C@H]1OC(=O)[C@H](C)[C@@H](O[C@H]2C[C@@](C)(OC)[C@@H](O)[C@H](C)O2)[C@H](C)[C@@H](O[C@@H]2O[C@H](C)C[C@H](N(C)C)[C@H]2O)[C@](C)(OC)C[C@@H](C)C(=O)[C@H](C)[C@@H](O)[C@]1(C)O [Clarithromycin] gave an MIC50 (Streptococcus pneumoniae; [6]) of 0.094 µg/mL (≈ 0.126 µM), an MIC90 (Streptococcus pneumoniae; [6]) of at least 256 µg/mL and an MIC50 (Streptococcus pneumoniae; [7]) of 0.094 µg/mL (≈ 0.126 µM). It also gave an MIC90 (Streptococcus pneumoniae; [7]) of 0.38 µg/mL (≈ 0.508 µM), an MIC50 (Staphylococcus aureus; read-out: MIC50) of 0.25 µg/mL (≈ 0.334 µM) and an MIC90 (Staphylococcus aureus; read-out: MIC90) of 1 µg/mL (≈ 1.34 µM).
C[C@H]1c2cccc(O)c2C(=O)C2=C(O)[C@]3(O)C(=O)C(C(N)=O)=C(O)[C@@H](N(C)C)[C@@H]3[C@@H](O)[C@@H]21 [Doxycycline, doxycycline] was tested, and the “Rates of non-susceptible microorganisms” value (Salmonella spp.; Salmonella spp.) was 22%, the “MIC (mg/L) Range” value (Salmonella spp.) was 1 to 128 mg/L and the MIC (Salmonella spp.; [1]) was 2 mg/L (≈ 4.5 µM). The MIC (Salmonella spp.; [2]) was 16 mg/L (≈ 36 µM), the MIC (Hafnia alvei; [3]) was 1 to 16 mg/L (≈ 2.25 to 36 µM) and the “Rates of non-susceptible microorganisms” value (Hafnia alvei; Hafnia alvei) was 22%. It also gave an MIC (Hafnia alvei; read-out: MIC (mg/L) 50%) of 2 mg/L (≈ 4.5 µM), an MIC (Hafnia alvei; read-out: MIC (mg/L) 90%) of 8 mg/L (≈ 18 µM) and an MIC (Yersinia enterocolitica; [3]) of 0.25 to 8 mg/L (≈ 0.563 to 18 µM). For the same compound, the “Rates of non-susceptible microorganisms” value (Yersinia enterocolitica; Yersinia enterocolitica) was 5%, the MIC (Yersinia enterocolitica; read-out: MIC (mg/L) 50%) was 1 mg/L (≈ 2.25 µM) and the MIC (Yersinia enterocolitica; read-out: MIC (mg/L) 90%) was 2 mg/L (≈ 4.5 µM). For the same compound, the “Rates of non-susceptible microorganisms” value (Shigella spp.; Shigella spp.) was 43%, the MIC (Shigella spp.; Shigella, 24 h, read-out: MIC (mg/L) Range) was 0.5 to 32 mg/L (≈ 1.13 to 72 µM) and the MIC (Shigella spp.; Shigella, read-out: MIC (mg/L) 50%) was 16 mg/L (≈ 36 µM). For the same compound, the MIC (Shigella spp.; Shigella, read-out: MIC (mg/L) 90%) was 32 mg/L (≈ 72 µM), the “MIC (mg/L) Range” value (Aeromonas spp.) was 0.25 to 4 mg/L and the MIC (Aeromonas spp.; read-out: MIC (mg/L) 50%) was 0.5 mg/L (≈ 1.13 µM). For the same compound, the MIC (Aeromonas spp.; read-out: MIC (mg/L) 90%) was 2 mg/L (≈ 4.5 µM), the “Rates of non-susceptible microorganisms” value (Campylobacter jejuni; Campylobacter jejuni) was 40% and the “MIC (mg/L) Range” value (Campylobacter jejuni) was 0.06 to 64 mg/L. For the same compound, the MIC (Campylobacter jejuni; [4]) was 16 mg/L (≈ 36 µM) and the MIC (Campylobacter jejuni; [5]) was 32 mg/L (≈ 72 µM).
